The results in this text go back to ChEMBL document CHEMBL1201862, “PubChem BioAssay data set” (2004).

Some test systems named below: HL-60; SK-MEL-28; MOLT-4; K562; COLO 205; LOX IMVI; SF-295; A549; CCRF-CEM; HT-29; SF-268; HCT-116; SN12C; UO-31; NCI-H460; OVCAR-5; SW-620; OVCAR-8; SK-MEL-2; SK-MEL-5.
What all share (assay): DTP human tumour cell line panel, 48 h

By GI50 is commonly meant the concentration that inhibits growth by half.

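All cell lines were grown in 96-well plates and treated with compound for 48 hours. At the GI50, growth is halved.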 The source made the active and inactive calls. No stated cut-off is given here; in the data, active = GI50 up to about 1.1 µM and inactive = higher.

With `COc1ccc2cc1Oc1ccc(cc1)C[C@H]1c3cc(c(OC)cc3CCN1C)Oc1c(O)c(OC)cc3c1[C@H](C2)N(C)CC3` [FANGCHINOLINE], the GI50 in the assay on HL-60 is 14 µM (inactive); with SK-MEL-28, 21.8 µM (inactive); in the assay on MOLT-4, 11.7 µM (inactive); in the assay on K562 it was 11.4 µM (inactive); in the assay with COLO 205 it was 15.8 µM (inactive); with LOX IMVI, 5.3 µM (inactive). Moreover, the GI50 was 16.9 µM (inactive) with SF-295; 31.5 µM (inactive) with A549; 24.3 µM (inactive) in the assay on CCRF-CEM; 22.3 µM (inactive) in the assay on HT-29; 30.2 µM (inactive) in the assay on SF-268; 13.3 µM (inactive) in the assay on HCT-116. For the same compound, the GI50 with SN12C is 38.8 µM (inactive); in the assay with UO-31, 25.5 µM (inactive); with NCI-H460, 21.8 µM (inactive); in the assay with OVCAR-5, 46.3 µM (inactive); with SW-620, 15 µM (inactive); in the assay with OVCAR-8, 5.25 µM (inactive). Moreover, the results for the GI50 in the assay on SK-MEL-2 and in the assay on SK-MEL-5 were 26.5 µM (inactive) and 13.6 µM (inactive), respectively.
With `O=c1ccn(CC2(CO)CC(Cc3ccccc3)C2)c(=O)[nH]1` (stereo not given), the GI50 in the assay with HL-60, in the assay on SK-MEL-28, in the assay on MOLT-4, in the assay on K562, in the assay on COLO 205 and with LOX IMVI was > 100 µM (inactive) throughout. The GI50 in the assay on SF-295, with A549, with CCRF-CEM, in the assay with HT-29, in the assay on SF-268 and in the assay with HCT-116 was > 100 µM (inactive) throughout. The GI50 in the assay with SN12C, in the assay with UO-31, in the assay on NCI-H460, in the assay with OVCAR-5, in the assay on SW-620 and with OVCAR-8 was > 100 µM (inactive) in each case. Also, the GI50 with SK-MEL-2 and in the assay with SK-MEL-5 was > 100 µM (inactive) each time.
Take `CCCCOP(C)(=O)C(NC(=O)OCC)(C(F)(F)F)C(F)(F)F` (stereo not given): the GI50 in the assay with HL-60, in the assay with SK-MEL-28, in the assay with MOLT-4, in the assay on K562, in the assay on COLO 205 and with LOX IMVI was > 100 µM (inactive) in each case. In addition, the GI50 with SF-295, in the assay on A549, in the assay with CCRF-CEM, in the assay with HT-29, in the assay on SF-268 and with HCT-116 was > 100 µM (inactive) in each case. Further, the GI50 in the assay with SN12C, in the assay with UO-31, with NCI-H460, in the assay on OVCAR-5, in the assay with SW-620 and with OVCAR-8 was > 100 µM (inactive) in each case. Besides, the GI50 in the assay with SK-MEL-2 and in the assay on SK-MEL-5 was > 100 µM (inactive) throughout.
`CC(=O)OC(C(=O)O)C(OC(C)=O)C(OC(C)=O)C(OC(C)=O)C(=O)O` (stereo not given): the GI50 in the assay on HL-60, with SK-MEL-28, in the assay with MOLT-4, with K562, with COLO 205 and in the assay on LOX IMVI was > 100 µM (inactive) throughout. For the same compound, the GI50 in the assay with SF-295, in the assay with A549, in the assay with CCRF-CEM, in the assay on HT-29, in the assay on SF-268 and with HCT-116 was > 100 µM (inactive) in each case. In addition, the GI50 with SN12C, with UO-31, with NCI-H460, with OVCAR-5, in the assay on SW-620 and with OVCAR-8 was > 100 µM (inactive) in each case. For the same compound, the GI50 in the assay with SK-MEL-2 and with SK-MEL-5 was > 100 µM (inactive) in each case.
As for `O=C1C(Cl)=C(N2CCC[C@H]2CO)C(=O)c2c(O)ccc(O)c21`, the GI50 with HL-60 is 0.0724 µM (active); in the assay with SK-MEL-28, 1.55 µM (inactive); in the assay with MOLT-4 it was 0.337 µM (active); in the assay with K562 it was 0.425 µM (active); in the assay on COLO 205 it was 1.77 µM (inactive); with LOX IMVI, 2.09 µM (inactive). The GI50 was > 10 µM (inactive) with SF-295; 8.2 µM (inactive) in the assay on A549; 0.22 µM (active) in the assay on CCRF-CEM; 4.18 µM (inactive) with HT-29; 3.74 µM (inactive) in the assay on SF-268; 1.64 µM (inactive) in the assay on HCT-116. Also, the GI50 is 1.71 µM (inactive) with SN12C; 2.24 µM (inactive) with UO-31; 8.63 µM (inactive) with NCI-H460; > 10 µM (inactive) with OVCAR-5; 1.7 µM (inactive) in the assay on SW-620; 2.88 µM (inactive) with OVCAR-8. Further, the figures for the GI50 in the assay on SK-MEL-2 and in the assay on SK-MEL-5 were 2.53 µM (inactive) and 1.73 µM (inactive), respectively.
As to `[N-]=[N+]=Nc1c(C=O)c(=O)n2c3c(cccc13)CCC2`, the GI50 in the assay with HL-60 was 0.608 µM (active); with SK-MEL-28 it was 11.5 µM (inactive); with MOLT-4, 1.24 µM (inactive); in the assay on K562, 2.82 µM (inactive); in the assay on COLO 205, 2.3 µM (inactive); in the assay on LOX IMVI, 10.3 µM (inactive). Also, the GI50 in the assay with SF-295 is 25.9 µM (inactive); with A549, 20.8 µM (inactive); in the assay with CCRF-CEM, 0.778 µM (active); in the assay on HT-29, 10 µM (inactive); with SF-268, 14.4 µM (inactive); in the assay with HCT-116 it was 3.15 µM (inactive). The GI50 in the assay with SN12C was 15.4 µM (inactive); in the assay on UO-31 it was 2.49 µM (inactive); in the assay with NCI-H460, 21.2 µM (inactive); with OVCAR-5, 7.24 µM (inactive); with SW-620, 1.39 µM (inactive); in the assay on OVCAR-8 it was 3.03 µM (inactive). The results for the GI50 with SK-MEL-2 and in the assay with SK-MEL-5 were > 10 µM (inactive) and 13.8 µM (inactive), respectively.
Regarding `O=C1Oc2ccc([N+](=O)[O-])cc2N/C1=C\C(=O)c1ccccc1`, the GI50 with HL-60 is 62.4 µM (inactive); in the assay with SK-MEL-28, > 100 µM (inactive); with MOLT-4, > 100 µM (inactive); in the assay on K562 it was > 100 µM (inactive); with COLO 205, 97.5 µM (inactive); in the assay with LOX IMVI it was > 100 µM (inactive). Also, the GI50 is > 100 µM (inactive) with SF-295; > 100 µM (inactive) in the assay on A549; 43.5 µM (inactive) in the assay with CCRF-CEM; > 100 µM (inactive) with HT-29; > 100 µM (inactive) in the assay with SF-268; > 100 µM (inactive) in the assay on HCT-116. In addition, the GI50 was 62.1 µM (inactive) in the assay with SN12C; > 100 µM (inactive) with UO-31; > 100 µM (inactive) in the assay on NCI-H460; > 100 µM (inactive) with OVCAR-5; > 100 µM (inactive) in the assay on SW-620; > 100 µM (inactive) in the assay on OVCAR-8. Moreover, the GI50 in the assay on SK-MEL-2 is 27.9 µM (inactive); in the assay on SK-MEL-5, > 100 µM (inactive).
